Measurements taken from patent US20210053957A1, “HERBICIDAL COMPOUNDS” (SYNGENTA PARTICIPATIONS AG, priority 2018, published 2021).

Legend:
Test in all cases: Post-emergence efficacy, glasshouse spray test
Type in all cases: in vivo
[1] = system: Echinochloa crus-galli (ECHCG); conditions: Application Rate 500 g/Ha, evaluated after 13 days; for pest or weed control at 500 g/ha: Echinochloa crus-galli, post-emergence, 312 h, read-out: Control of weed species after post-emergence application, ECHCG (100=total damage to plant; 0=no damage to plant)
Protocol: (§1) Seeds of a variety of test species were sown in standard soil in pots. After cultivation for 14 days (post-emergence) under controlled conditions in a glasshouse (at 24/16° C. day/night; 14 hours light; 65% humidity), the plants were sprayed with an aqueous spray solution derived from the dissolution of the technical active ingredient formula (I) in a small amount of acetone and a special solvent and emulsifier mixture referred to as IF50 (11.12% Emulsogen EL360 TM+44.44% N-methyl pyrrolidone+44.44% Dowanol DPM glycolether), to create a 50 g/l solution which was then diluted to required concentration using 0.25% or 1% Empicol ESC70 (Sodium lauryl ether sulphate)+1% ammonium sulphate as diluent. The test plants were then grown in a glasshouse under controlled conditions (at 24/16° C., day/night; 14 hours light; 65% humidity) and watered twice daily. After 13 days the test was evaluated (100=total damage to plant; 0=no damage to plant).
(§2) Ipomoea hederacea (IPOHE), Euphorbia heterophylla (EPHHL), Chenopodium album (CHEAL), Amaranthus palmeri (AMAPA), Lolium perenne (LOLPE), Digitaria sanguinalis (DIGSA), Eleusine indica (ELEIN), Echinochloa crus-galli (ECHCG), Setaia fabei (SETFA)

Eleusine indica (ELEIN) = conditions: Application Rate 500 g/Ha, evaluated after 13 days; for pest or weed control at 500 g/ha: Eleusine indica, post-emergence, 312 h, read-out: Control of weed species after post-emergence application, ELEIN (100=total damage to plant; 0=no damage to plant)
Protocol: as §1, §2

Setaia fabei (SETFA) = conditions: Application Rate 500 g/Ha, evaluated after 13 days; for pest or weed control at 500 g/ha: Setaria faberi, post-emergence, 312 h, read-out: Control of weed species after post-emergence application, SETFA (100=total damage to plant; 0=no damage to plant)
Protocol: as §1, §2

[2] = system: Ipomoea hederacea (IPOHE); conditions: Application Rate 500 g/Ha, evaluated after 13 days; for pest or weed control at 500 g/ha: Ipomoea hederacea, post-emergence, 312 h, read-out: Control of weed species after post-emergence application, IPOHE (100=total damage to plant; 0=no damage to plant)
Protocol: as §1, §2

Lolium perenne (LOLPE) = conditions: Application Rate 500 g/Ha, evaluated after 13 days; for pest or weed control at 500 g/ha: Lolium perenne, post-emergence, 312 h, read-out: Control of weed species after post-emergence application, LOLPE (100=total damage to plant; 0=no damage to plant)
Protocol: as §1, §2

[3] = system: Euphorbia heterophylla (EPHHL); conditions: Application Rate 500 g/Ha, evaluated after 13 days; for pest or weed control at 500 g/ha: Euphorbia heterophylla, post-emergence, 312 h, read-out: Control of weed species after post-emergence application, EPHHL (100=total damage to plant; 0=no damage to plant)
Protocol: as §1, §2

[4] = system: Chenopodium album (CHEAL); conditions: Application Rate 500 g/Ha, evaluated after 13 days; for pest or weed control at 500 g/ha: Chenopodium album, post-emergence, 312 h, read-out: Control of weed species after post-emergence application, CHEAL (100=total damage to plant; 0=no damage to plant)
Protocol: as §1, §2

[5] = system: Amaranthus palmeri (AMAPA); conditions: Application Rate 500 g/Ha, evaluated after 13 days; for pest or weed control at 500 g/ha: Amaranthus palmeri, post-emergence, 312 h, read-out: Control of weed species after post-emergence application, AMAPA (100=total damage to plant; 0=no damage to plant)
Protocol: as §1, §2

[6] = system: Digitaria sanguinalis (DIGSA); conditions: Application Rate 500 g/Ha, evaluated after 13 days; for pest or weed control at 500 g/ha: Digitaria sanguinalis, post-emergence, 312 h, read-out: Control of weed species after post-emergence application, DIGSA (100=total damage to plant; 0=no damage to plant)
Protocol: as §1, §2

SMILES | pest or weed control at 500 g/ha [1] | pest or weed control at 500 g/ha (Eleusine indica (ELEIN)) | pest or weed control at 500 g/ha (Setaia fabei (SETFA)) | pest or weed control at 500 g/ha [2] | pest or weed control at 500 g/ha (Lolium perenne (LOLPE)) | pest or weed control at 500 g/ha [3] | pest or weed control at 500 g/ha [4] | pest or weed control at 500 g/ha [5] | pest or weed control at 500 g/ha [6] | Control of weed species after post-emergence application, ECHCG (100=total damage to plant; 0=no damage to plant) [1] | Control of weed species after post-emergence application, ELEIN (100=total damage to plant; 0=no damage to plant) (Eleusine indica (ELEIN)) | Control of weed species after post-emergence application, SETFA (100=total damage to plant; 0=no damage to plant) (Setaia fabei (SETFA)) | Control of weed species after post-emergence application, IPOHE (100=total damage to plant; 0=no damage to plant) [2] | Control of weed species after post-emergence application, LOLPE (100=total damage to plant; 0=no damage to plant) (Lolium perenne (LOLPE)) | Control of weed species after post-emergence application, EPHHL (100=total damage to plant; 0=no damage to plant) [3] | Control of weed species after post-emergence application, CHEAL (100=total damage to plant; 0=no damage to plant) [4] | Control of weed species after post-emergence application, AMAPA (100=total damage to plant; 0=no damage to plant) [5] | Control of weed species after post-emergence application, DIGSA (100=total damage to plant; 0=no damage to plant) [6]
COc1cc(-c2cc[n+](CCC(=O)O)nc2)sn1 [Compound A33] | 20% | 50% | 30% | 10% | 30% | 80% | 70% | 100% | 70% | – | – | – | – | – | – | – | – | –
CC(CNS(=O)(=O)[O-])[n+]1ccc(-c2ncco2)cn1 (centres unmarked) [Compound A83] | 60% | 70% | 60% | 40% | 50% | 70% | 70% | 100% | 60% | – | – | – | – | – | – | – | – | –
Cn1nnc(-c2cc[n+](CCS(=O)(=O)O)nc2)n1 [Compound A11] | 100% | 100% | 100% | 60% | 80% | 100% | 90% | 100% | 90% | – | – | – | – | – | – | – | – | –
O=C(O)CC[n+]1ccc(-c2cncs2)cn1 [Compound A122] | 30% | 70% | 50% | 30% | 20% | 70% | 0% | 90% | 90% | – | – | – | – | – | – | – | – | –
CNC(=O)c1coc(-c2cc[n+](CCS(=O)(=O)O)nc2)n1 [Compound A125] | – | – | – | – | – | – | – | – | – | 60 | 40 | 70 | 10 | 40 | 40 | 10 | 30 | 60
COC(=O)C[n+]1ccc(-c2ncn(C)n2)cn1 [Compound A87] | 50% | 80% | 40% | 10% | 0% | 80% | 20% | 80% | 90% | – | – | – | – | – | – | – | – | –
COP(=O)([O-])C[n+]1ccc(-c2ncco2)cn1 [Compound A103] | 70% | 60% | 80% | 40% | 30% | 70% | 40% | 70% | 90% | – | – | – | – | – | – | – | – | –
COP(=O)(CC[n+]1ccc(-c2ncco2)cn1)OC.O=C([O-])C(F)(F)F [Compound A108] | – | – | – | – | – | – | – | – | – | 30 | 20 | 30 | 30 | 10 | 30 | 20 | 20 | 60
COP(=O)(C[n+]1ccc(-c2ncco2)cn1)OC [Compound A94] | – | – | – | – | – | – | – | – | – | 90 | 100 | 90 | 90 | 40 | 100 | 90 | 90 | 100
N[C@@H](CC[n+]1ccc(-c2ncco2)cn1)C(=O)O [Compound A110] | 100% | 100% | 80% | 20% | 20% | 40% | 80% | 90% | 90% | – | – | – | – | – | – | – | – | –
COC(=O)[C@@H](N)CC[n+]1ccc(-c2ncco2)cn1 [Compound A109] | – | – | 90% | 0% | 10% | 60% | 90% | 90% | – | – | – | – | – | – | – | – | – | –
CC(C)c1csc(-c2cc[n+](CCC(=O)O)nc2)n1.O=C([O-])C(F)(F)F [Compound A24] | – | – | – | – | – | – | – | – | – | 30 | 20 | 20 | 10 | 10 | – | 0 | 0 | 10
COc1csc(-c2cc[n+](CCS(=O)(=O)[O-])nc2)n1 [Compound A26] | 20% | 40% | 40% | 40% | 30% | – | 40% | 20% | 30% | – | – | – | – | – | – | – | – | –
OCCC[n+]1ccc(-c2ncco2)cn1 [Compound A70] | 40% | 40% | 40% | 30% | 20% | – | 40% | 40% | 80% | – | – | – | – | – | – | – | – | –
Cc1nsc(-c2cc[n+](CCC(=O)O)nc2)c1C [Compound A58] | 70% | 40% | 90% | 20% | 30% | – | 50% | 80% | 90% | – | – | – | – | – | – | – | – | –
